Reference: PMC12722920, “Pharmacokinetics and pharmacodynamics of cannabigerol (CBG) in the C57BL/6Crl mouse” (Frontiers in Pharmacology, 2025)
Like-named read-outs stand apart in the source and are kept apart here.

Key:
[1] = design: method as in Newmeyer et al., 2016; settings: ref Newmeyer et al., 2016, cited from earlier work
[2] = Phase I pharmacokinetic profile: blood concentration vs time by HPLC-MS/MS after a single 10 mg/kg dose; assay type: in vivo, C57BL/6Crl mice; settings: for k (terminal phase rate constant): noncompartmental
Description: In phase I, male mice were randomly assigned to Groups A, B, C, or D. Interventions per group are specified in Figure 2. Each group was divided into 3 cohorts and randomly assigned to receive p.o., i.p., or i.v. administration. Oral (p.o.) administration cohorts received 10 mg/kg CBG in olive oil with 10% DMSO, and i.p. and i.v. cohorts received 10 mg/kg CBG with 10% DMSO and vehicle (1:1:18 ethanol: kolliphor: saline). PK profiles were developed for blood collection at 10 min, 30 min, 1 h, 3 h, 6 h, 12 h, 18 h, and 24 h. Blood collection was performed using a destructive sampling method, with each mouse providing blood at two time point collections. The initial blood draw aimed to obtain a 100 µL blood sample from the left leg lateral saphenous vein of the mouse, and the second blood draw from the same mouse involved the administration of isoflurane (3%–5%) followed by exsanguination via cardiac puncture. Group A was subjected to two time point blood draws, at 10 min and at 30 min. Groups B-D were first subjected to the cannabinoid-induced tetrad assay, then two time point blood draws. Due to time constraints, the open field test (OFT) was not performed in Phase I.
Blood collection from the saphenous leg vein was drawn into a RAM Scientific Safe-T-Fill™ Capillary blood collection system containing heparin and lithium (Waltham, Massachusetts, U.S). Blood collection from the cardiac puncture was drawn into a syringe and transferred to a 2 mL blood collection tube containing heparin and lithium. Samples were immediately placed on ice, transferred to LoBind® tubes as quickly as possible, and then stored at −80 °C. The blood concentrations of CBG were determined using High-Performance Liquid Chromatography-Tandem Mass Spectrometry (HPLC-MS/MS).
The PK parameters for CBG were determined by GraphPad Prism (v. 10.2.3). Linear regression analysis natural log of the concentration versus time curve was utilized to derive the terminal phase rate constant (k), from which the terminal phase half-life (t1/2) was calculated using the ratio (0.693/k). For both p.o. and i.p. administration, the Cmax was obtained directly from visual inspection of the blood concentration versus time profiles. For the purposes of this study, Tmax refers to the time at which Cmax was reported. The log-linear trapezoidal method was used to calculate the total area under the curve (AUC) of the average blood concentrations versus time profile with extrapolation to infinity, where the tail of the AUC (i.e., last concentration extrapolated to infinity) was calculated as the ratio Cp,last/k. Bioavailability was estimated by dividing the mean total AUC∞ for each route of administration by the total AUC observed for each compound following i.v. administration (where F = 100%, by definition). Systemic clearance (ClS) was calculated as the ratio Dose i.v. /AUC ∞ . The apparent volume of distribution (Vd) was calculated as Dose i.v. /(k × AUC ∞ ).
HPLC-MS/MS was used to quantify CBG in the blood using a 1,260 Agilent (Agilent Technologies Canada, Mississauga, ON) High Performance Liquid Chromatography (HPLC) system connected to an AB Sciex 4,000 Hybrid Triple Quadruple Linear Ion Trap Mass Spectrometer (QTRAP) equipped with a Turboionspray™ interface (AB Sciex, Concord, ON). The analytical method was developed and validated for mouse blood. An Infinity lab Phenyl Hexyl column (4.6 × 12.5 mm, 5 μm) and guard column (4.6 × 12.5 mm, 5 μm) were used to separate compounds, and the temperature was set to 50 °C.

[3] = test system: male mice; design: method as in Zagzoog et al., 2020; settings: i.p., 15 min post-injection; ref Zagzoog et al., 2020; cited from earlier work
[4] = test system: CB1R; design: method as in earlier work; settings: ref El-Alfy et al., 2010; Navarro et al., 2018; Zagzoog et al., 2020; cited from earlier work
[5] = test system: C57BL/6Crl mice; experiment: Cannabinoid tetrad: catalepsy in the ring holding assay; assay type: in vivo; settings: for ED50: Mus musculus, iv
[6] = 10 mg/kg i.v., male mice, blood
[7] = C57BL/6Crl, mouse, whole blood, ip, 10 mg/kg i.p., male mice, blood
[8] = C57BL/6Crl, mouse, whole blood, iv, 10 mg/kg i.v., male mice, blood
[9] = C57BL/6Crl, mouse, whole blood, po, 10 mg/kg p.o., male mice, blood

SMILES: CCCCCc1cc(O)c(C/C=C(\C)CCC=C(C)C)c(O)c1 [CBG, cannabigerol]
- detection in blood after oral cannabis ([1]; cannabis administered orally): not detected
- time CBG was detected after smoking ([1]; frequent cannabis smokers): up to 17 min
- time CBG was detected following vaporization ([1]; frequent cannabis smokers): up to 13 min
- p.o. Cmax as percent of i.p. Cmax ([2]; 10 mg/kg CBG, male mice): 2%
- k (terminal phase rate constant) ([2]; 10 mg/kg i.p., male mice, blood): 0.069 h⁻¹
- α [2, 6]: 1.016 h⁻¹
- k (terminal phase rate constant) [2, 6]: 0.0698 h⁻¹
- AUC(0-inf) [2, 7]: 1170 ng·h/mL
- Cmax [2, 7]: 516 ng/mL
- Tmax [2, 7]: 0.5 h
- half-life [2, 7]: 10 h
- AUC(0-inf) [2, 8]: 2800 ng·h/mL
- half-life [2, 8]: 9.9 h
- clearance ([2]; C57BL/6Crl, mouse, whole blood, iv, 10 mg/kg i.v., male mice, read-out: ClS (systemic clearance)): 59.4 mL/min/kg
- Vd ([2]; C57BL/6Crl, mouse, whole blood, iv, 10 mg/kg i.v., male mice, read-out: Vd (apparent volume of distribution)): 51.1 L/kg
- Cmax [2, 9]: 10.5 ng/mL
- Tmax [2, 9]: 3 h
- concentration at 10 min ([2]; male, C57BL/6Crl, mouse, whole blood, iv, 10 mg/kg, i.v., males, read-out: C at 10 min (blood concentration 10 min post-administration)): 2840 ng/mL
- anti-nociceptive effect [3]: evoked an anti-nociceptive effect
- CB1R affinity relative to THC [4]: approximately one-twentieth
- catalepsy, mean % MPE ([5]; 10 mg/kg i.p., 20 min post-injection, male and female mice, MPE = 60 s): 5.4% ± 2.5%
- cataleptic response ([5]; 10 mg/kg i.v., i.p. and p.o., male mice, 5 min post-injection): did not produce a cataleptic response
- catalepsy, dose-response ([5]; 1, 3, 10 or 30 mg/kg i.v., male and female mice): produced a modest effect but only at the highest dose tested, 30 mg/kg
- ED50 ([5]; 5 min, i.v., both sexes, 5 min post-administration, read-out: ED50 catalepsy): > 30 mg/kg
- ED50 ([5]; both sexes, three-parameter nonlinear regression, read-out: ED50 catalepsy, estimate exceeding the dose range (square brackets)): > 30 mg/kg
- ED50 ([5]; males, read-out: ED50 catalepsy): > 30 mg/kg
- Intoxication ratio, catalepsy ([5]; THC potency/CBG potency corrected for blood concentration at 10 min, both sexes): 0.23
- intoxication relative to THC, catalepsy ([5]; accounting for blood concentrations measured at 10 min, i.v.): 23%
- Intoxication ratio, catalepsy ([5]; females): 0.28
- ED50 catalepsy ([5]; i.v., females): > 30 mg/kg
- Intoxication ratio, catalepsy ([5]; males): 0.17
